Measured values from paper PMC3660367, “MARCKS Protein Is Phosphorylated and Regulates Calcium Mobilization during Human Acrosomal Exocytosis” (PLoS ONE, 2013).

Experiments:
[1] = tested on: phosphorylated MARCKS in human sperm; assay: Phosphorylated MARCKS level in stimulated sperm by Western blot (anti-phospho-MARCKS); assay type: cell-based; conditions: non-permeabilized capacitated sperm; 100 µM 2-APB 15 min, then 20 min 10 µM A23187, 200 nM PMA or 15 µM progesterone; normalized against β-tubulin; three experiments
Method: To examine the presence of MARCKS and phosphorylated MARCKS, the fraction of motile sperm capacitated for 2–3 h in BSA supplemented-HTF medium was used. After removing the HTF by washing cells twice with cold PBS, sperm pellets were resuspended in sample buffer (2% SDS, 10% glycerol, and 62.5 mM Tris-HCl pH 6.8) without disulfide reducing agents. Proteins were extracted by heating three times to 95°C for 4 min each. Extracts were centrifuged (12,000×g) for 10 min, and the supernatants were adjusted to 5% β-mercaptoethanol. Protein were resolved on 10% polyacrylamide gels according to [23], and transferred to PVDF membranes (Millipore). Non-specific reactivity was blocked by incubation for 1 h at room temperature (RT) with 5% skim milk dissolved in tris-buffered saline with 0.1% Tween-20 (T-TBS: 50 mM Tris-HCl pH 7.4, 150 mM NaCl, 0.1% Tween-20). Blots were incubated with primary anti-MARCKS antibody from Abcam (0.26 µg/ml), anti-MARCKS N-19 from Santa Cruz (0.13 µg/ml), or anti-phospho-MARCKS (0.06 µg/ml), in blocking solution overnight at 4°C. Biotinylated, goat anti-mouse-IgG (0.076 µg/ml), biotinylated, rabbit anti-goat-IgG (0.4 µg/ml) or biotinylated, goat anti-rabbit-IgG (0.076 µg/ml) were used as secondary antibodies during 60 min incubations at RT. Blots were then incubated with peroxidase-conjugated streptavidin (0.17 µg/ml) during 60 min incubations at RT. Excess first and second antibodies, and peroxidase-conjugated streptavidin were removed by washing five times for 10 min each in T-TBS. For loading control blots were reprobed with anti-β-tubulin. […]
Figure 5 Assessing MARCKS function on acrosomal exocytosis in non-permeabilized sperm. […] The increase in fluorescence is expressed as (F/F0)-1 ((maximum fluorescence intensity/initial fluorescence)-1) versus time in seconds. […] (D) Quantification of three independent experiments. […] Phosphorylated MARCKS was detected by Western blot assay using an anti-phospho-MARCKS antibody. […]

[2] = tested on: acrosomal exocytosis in permeabilized human sperm; assay: Acrosomal exocytosis assay in SLO-permeabilized human sperm (FITC-PSA lectin staining); assay type: cell-based; conditions: 1 µM MARCKS ED 15 min, then 50 µM PIP2 or 5 µM adenophostin, then 10 µM free Ca2+ or 200 nM PMA
Method: Acrosomal exocytosis assays were performed as previously described. Briefly, human semen obtained from normal healthy donors was allowed to liquefy for 30-60 min at 37°C. We used a swim-up protocol to isolate highly motile sperm under capacitating conditions in Human Tubal Fluid media (HTF, as formulated by Irvine Scientific, Santa Ana, CA) supplemented with 0.5% bovine serum albumin (BSA) for 1 h at 37°C in an atmosphere of 5% CO2/95% air. Sperm concentrations were adjusted to 5–10×10^6 cells/ml and incubated for at least 2 h under capacitating conditions. We have shown previously that human sperm incubated under these conditions are responsive to progesterone. […] Acrosomal status was evaluated by staining with FITC-coupled Pisum sativum agglutinin (FITC-PSA) according to [21]. At least 200 cells were scored using a Nikon Optiphot II microscope equipped with epifluorescence optics. […] For each experiment, acrosomal exocytosis indexes were calculated by subtracting the number of reacted spermatozoa in the negative control (range 10%–30%) from all values, and expressing the resulting values as a percentage of the acrosome exocytosis observed in the positive control (range 25%–40%). […] Data were evaluated using one-way ANOVA and post hoc tests (Dunnett's test or confident intervals). […]

Row | Molecule | increase of phosphorylated MARCKS [1] [%] | rescue of MARCKS ED inhibition of acrosomal exocytosis [2]
1 | CNc1ccc2oc(C[C@H]3O[C@@]4(CC[C@H]3C)O[C@H]([C@H](C)C(=O)c3ccc[nH]3)[C@H](C)C[C@H]4C)nc2c1C(=O)O [A23187] | 50 | –
2 | CCCCCCCCCCCCCC(=O)O[C@@H]1[C@@H](C)[C@@]2(O)[C@@H](C=C(CO)C[C@]3(O)C(=O)C(C)=C[C@@H]23)[C@@H]2C(C)(C)[C@]12OC(C)=O [PMA, phorbol 12-myristate 13-acetate] | 60 | –
3 | Nc1ncnc2c1ncn2[C@@H]1O[C@H](CO)[C@@H](O[C@H]2O[C@H](CO)[C@@H](OP(=O)(O)O)[C@H](OP(=O)(O)O)[C@H]2O)[C@H]1OP(=O)(O)O [adenophostin, Adenophostin A] | – | rescued exocytosis impaired by MARCKS ED
4 | CC(=O)[C@H]1CC[C@H]2[C@@H]3CCC4=CC(=O)CC[C@]4(C)[C@H]3CC[C@]12C [progesterone] | 40 | –
5 | Phosphatidylinositol 4, 5-bisphosphate [PIP2] | – | able to recover the MARCKS ED inhibition
